Activity calls are given as the source filed them. The calls are words filed in the database; no cut-off is given here.
How the values were obtained:
Format in all cases: nucleic-acid assay
Settings in all cases: Escherichia coli
Nucleic Acid [1] = test: Induction of supercoiled pBR322 DNA cleavage at PH 7.2 after 8 hrs at 37 degC in absence of triethylamine
Nucleic Acid [2] = test: Induction of supercoiled pBR322 DNA cleavage at PH 7.2 after 16 hrs at 37 degC in absence of triethylamine
Nucleic Acid [3] = test: Induction of supercoiled pBR322 DNA cleavage at PH 7.2 after 16 hrs at 37 degC in presence of triethylamine
Nucleic Acid [4] = test: Induction of supercoiled pBR322 DNA cleavage at PH 7.2 after 8 hrs at 37 degC in presence of triethylamine

SMILES	Activity (Nucleic Acid [1])	Activity (Nucleic Acid [2])	Activity (Nucleic Acid [3])	Activity (Nucleic Acid [4])
O=S(=O)(C=C=Cc1ccccc1C#Cc1ccccc1C#CCS(=O)(=O)c1ccccc1)c1ccccc1	Active	Active		
O=S(=O)(C=C=Cc1ccccc1C#CC#Cc1ccccc1C#CCS(=O)(=O)c1ccccc1)c1ccccc1	Active	Active		
O=S(=O)(CC#Cc1ccccc1C#Cc1ccccc1C#CCS(=O)(=O)c1ccccc1)c1ccccc1			45%	45%
O=S(=O)(CC#Cc1ccccc1C#CC#Cc1ccccc1C#CCS(=O)(=O)c1ccccc1)c1ccccc1			62%	47%

Reference: ChEMBL document CHEMBL1151883, “Design and synthesis of bisenediyne bissulfones and their reactivity under basic condition” (Bioorg Med Chem Lett, 2009)
